Earlier results in US20090285840A1, “METHODS FOR TREATING PATHOLOGICAL NEOVASCULARIZATION” (New York Society for the Ruptured and Crippled Maintaining …, priority 2008, published 2009).

Test system: human ADAM9 mRNA
Design: concentration or dose not given beside the values
Settings: percentage inhibition data reported in US 2004/0092466, Example 15; target SEQ ID NO 94; cited from earlier work

**Q.** Which “% INHIB” value does the source give for “49 (ACTGAAGCTTTCCACACAAA; listed as DNA, chemistry not given here) [compound 49]” here?
**A.** Its value is 52%.

**Q.** Which “% INHIB” value does the source give for “52 (ATTATTGGCAGCTGATTAGT; listed as DNA, chemistry not given here) [compound 52]” here?
**A.** Its value is 79%.

**Q.** For “28 (ATGACTGAATAAGACTTATT; listed as DNA, chemistry not given here) [compound 28]”, which “% INHIB” value is on record?
**A.** The value was 68%.

**Q.** Which “% INHIB” value does the source give for “34 (TTAATAGCAAGCTTTGAAAG; listed as DNA, chemistry not given here) [compound 34]” here?
**A.** The value was 68%.

**Q.** With “31 (CGATAAATGATGTGCTCAAA; listed as DNA, chemistry not given here) [compound 31]” as the substance, how does the “% INHIB” value read?
**A.** Its value is 36%.

**Q.** With “58 (GGTATCTCTTGTACATTCTC; listed as DNA, chemistry not given here) [compound 58]” as the substance, how does the “% INHIB” value read?
**A.** Its value is 18%.

**Q.** With “39 (TTCCTTCTTTCTCCAGCCTA; listed as DNA, chemistry not given here) [compound 39]” as the substance, how does the “% INHIB” value read?
**A.** Its value is 81%.

**Q.** Which “% INHIB” value does the source give for “30 (AAGATTTTATAATTGCTCCT; listed as DNA, chemistry not given here) [compound 30]” here?
**A.** Its value is 71%.

**Q.** Which “% INHIB” value does the source give for “40 (GTGAGGGAACTATATAAAGG; listed as DNA, chemistry not given here) [compound 40]” here?
**A.** Its value is 66%.

**Q.** Which “% INHIB” value does the source give for “42 (AAAATTTTACGATCCATACC; listed as DNA, chemistry not given here) [compound 42]” here?
**A.** The value was 72%.

**Q.** Which “% INHIB” value does the source give for “32 (CAGTGATTTGTCCAAACACA; listed as DNA, chemistry not given here) [compound 32]” here?
**A.** The value was 30%.

**Q.** For “59 (GGGAACTGCTGAGGTTGCTT; listed as DNA, chemistry not given here) [compound 59]”, which “% INHIB” value is on record?
**A.** The value was 46%.

**Q.** With “23 (CCTCTTCATCCTTTGCAGTT; listed as DNA, chemistry not given here) [compound 23]” as the substance, how does the “% INHIB” value read?
**A.** The value was 84%.

**Q.** With “46 (CAAGATTCTAGAGTATGATG; listed as DNA, chemistry not given here) [compound 46]” as the substance, how does the “% INHIB” value read?
**A.** The value was 85%.

**Q.** With “54 (CTGATTAGTCAGTTTTCACA; listed as DNA, chemistry not given here) [compound 54]” as the substance, how does the “% INHIB” value read?
**A.** The value was 85%.

**Q.** With “44 (CAAATGTCTCCACAGTGATT; listed as DNA, chemistry not given here) [compound 44]” as the substance, how does the “% INHIB” value read?
**A.** Its value is 79%.

**Q.** For “55 (TCAATGCAGTATTCATTTCA; listed as DNA, chemistry not given here) [compound 55]”, which “% INHIB” value is on record?
**A.** The value was 49%.

**Q.** With “51 (AGAAAACCATTTCTTCCTTC; listed as DNA, chemistry not given here) [compound 51]” as the substance, how does the “% INHIB” value read?
**A.** The value was 75%.

**Q.** Which “% INHIB” value does the source give for “38 (TCCGTATCCTTTAGTCTCAC; listed as DNA, chemistry not given here) [compound 38]” here?
**A.** Its value is 80%.

**Q.** Which “% INHIB” value does the source give for “53 (GCACCACATTTTGTGCCTTC; listed as DNA, chemistry not given here) [compound 53]” here?
**A.** Its value is 74%.

**Q.** With “27 (CTGCTTTATTATAGCCATGA; listed as DNA, chemistry not given here) [compound 27]” as the substance, how does the “% INHIB” value read?
**A.** Its value is 85%.

**Q.** For “41 (AGGAATTAAGTTTCCCTGAG; listed as DNA, chemistry not given here) [compound 41]”, which “% INHIB” value is on record?
**A.** The value was 74%.

**Q.** Which “% INHIB” value does the source give for “25 (CAAGATTATGACCCAATTCA; listed as DNA, chemistry not given here) [compound 25]” here?
**A.** Its value is 69%.

**Q.** With “33 (ATTCATTCCAAGATTATGAC; listed as DNA, chemistry not given here) [compound 33]” as the substance, how does the “% INHIB” value read?
**A.** The value was 75%.

**Q.** For “24 (GTTTCCATTGGTCCAAATCT; listed as DNA, chemistry not given here) [compound 24]”, which “% INHIB” value is on record?
**A.** Its value is 77%.

**Q.** For “43 (CTGGAACATCTGATCCTAGC; listed as DNA, chemistry not given here) [compound 43]”, which “% INHIB” value is on record?
**A.** The value was 77%.

**Q.** For “56 (AAGAAGACCAGAAGTCCGTC; listed as DNA, chemistry not given here) [compound 56]”, which “% INHIB” value is on record?
**A.** The value was 74%.

**Q.** Which “% INHIB” value does the source give for “37 (CAATGGATGAATTATGAACT; listed as DNA, chemistry not given here) [compound 37]” here?
**A.** Its value is 62%.

**Q.** Which “% INHIB” value does the source give for “35 (GGGTCTGTGGCAAGACAGCT; listed as DNA, chemistry not given here) [compound 35]” here?
**A.** Its value is 65%.

**Q.** For “45 (GCTATTGTGAACGAATGTCA; listed as DNA, chemistry not given here) [compound 45]”, which “% INHIB” value is on record?
**A.** The value was 86%.

**Q.** Which “% INHIB” value does the source give for “48 (GGGAGGCTCTTCCTCTTCAT; listed as DNA, chemistry not given here) [compound 48]” here?
**A.** The value was 55%.

**Q.** Which “% INHIB” value does the source give for “47 (ATCATGTCATACCTTTCCTT; listed as DNA, chemistry not given here) [compound 47]” here?
**A.** Its value is 81%.

**Q.** For “26 (GAATATTAAGAAGGCAGTTT; listed as DNA, chemistry not given here) [compound 26]”, which “% INHIB” value is on record?
**A.** Its value is 27%.

**Q.** Which “% INHIB” value does the source give for “36 (TCTTTGCTCCACAGGAACAA; listed as DNA, chemistry not given here) [compound 36]” here?
**A.** Its value is 77%.

**Q.** For “57 (ATTCCTTTGGAGTACCACAG; listed as DNA, chemistry not given here) [compound 57]”, which “% INHIB” value is on record?
**A.** The value was 81%.

**Q.** With “29 (TACATTAATGATAACTAAGG; listed as DNA, chemistry not given here) [compound 29]” as the substance, how does the “% INHIB” value read?
**A.** The value was 68%.

**Q.** Which “% INHIB” value does the source give for “50 (TCCCACAAATGCCATTCCTG; listed as DNA, chemistry not given here) [compound 50]” here?
**A.** The value was 78%.
